Experimental data published in US20230203059A1, “MACROCYCLIC JAK INHIBITOR AND USES THEREOF” (Biopolar Hongye (Guangdong) Pharmaceutical Co. Ltd., priority 2020, published 2023).

Experiments:
Assay type in all cases: biochemical
JAK1 = JAK1 (Homo sapiens, UniProt P23458); test: JAK kinase activity, homogeneous time-resolved fluorescence (JAK1 reaction system); conditions: ATP 2 μM, JAK1 protein 0.2 ng/μL; read-out: JAK 1 activity
Method in brief: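 Kinase activity read as the 665 nm/615 nm time-resolved fluorescence ratio (320 nm excitation) after EDTA-containing antibody and XL-615 addition. Reaction ran 1 h at pH 7.0 (Hepes, MgCl2, DTT) with 0.2 ng/μL JAK1 and ATP at 2 μM. IC50 derived by Hill-slope fit.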

JAK2 = JAK2 (Homo sapiens, UniProt O60674); test: JAK kinase activity, homogeneous time-resolved fluorescence (JAK2 reaction system); conditions: ATP 2 μM, JAK2 protein 0.01 ng/μL
Method in brief: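 IC50 derived by Hill-equation fit of the 665/615 nm time-resolved fluorescence ratio after EDTA-containing detection mix with anti-phosphosubstrate antibody. Preceding 1 h reaction contained 2 μM ATP, 0.01 ng/μL JAK2, substrate, 50 mM Hepes pH 7.0, 5 mM MgCl2, 1 mM DTT.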

TYK2 = TYK2 (Homo sapiens, UniProt P29597); test: JAK kinase activity, homogeneous time-resolved fluorescence (TYK2 reaction system); conditions: ATP 2 μM, TYK2 protein 0.2 ng/μL; read-out: TYK 2 activity
Method in brief: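 Activity read as the 665 nm/615 nm ratio after adding EDTA-containing detection mix with anti-phospho-substrate antibody and XL-615. Beforehand, 0.2 ng/μL TYK2, 2 μM ATP, substrate and compound reacted 1 h in pH 7.0 Hepes buffer with MgCl2 and DTT. IC50 fitted with Hill-slope equation.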

JAK3 = target: T1, JAK3 (Homo sapiens, UniProt P52333); test: JAK kinase activity, homogeneous time-resolved fluorescence (JAK3 reaction system); conditions: ATP 2 μM, JAK3 protein 0.04 ng/μL; read-out: JAK 3 activity
T1 sequence (P52333 1-1124): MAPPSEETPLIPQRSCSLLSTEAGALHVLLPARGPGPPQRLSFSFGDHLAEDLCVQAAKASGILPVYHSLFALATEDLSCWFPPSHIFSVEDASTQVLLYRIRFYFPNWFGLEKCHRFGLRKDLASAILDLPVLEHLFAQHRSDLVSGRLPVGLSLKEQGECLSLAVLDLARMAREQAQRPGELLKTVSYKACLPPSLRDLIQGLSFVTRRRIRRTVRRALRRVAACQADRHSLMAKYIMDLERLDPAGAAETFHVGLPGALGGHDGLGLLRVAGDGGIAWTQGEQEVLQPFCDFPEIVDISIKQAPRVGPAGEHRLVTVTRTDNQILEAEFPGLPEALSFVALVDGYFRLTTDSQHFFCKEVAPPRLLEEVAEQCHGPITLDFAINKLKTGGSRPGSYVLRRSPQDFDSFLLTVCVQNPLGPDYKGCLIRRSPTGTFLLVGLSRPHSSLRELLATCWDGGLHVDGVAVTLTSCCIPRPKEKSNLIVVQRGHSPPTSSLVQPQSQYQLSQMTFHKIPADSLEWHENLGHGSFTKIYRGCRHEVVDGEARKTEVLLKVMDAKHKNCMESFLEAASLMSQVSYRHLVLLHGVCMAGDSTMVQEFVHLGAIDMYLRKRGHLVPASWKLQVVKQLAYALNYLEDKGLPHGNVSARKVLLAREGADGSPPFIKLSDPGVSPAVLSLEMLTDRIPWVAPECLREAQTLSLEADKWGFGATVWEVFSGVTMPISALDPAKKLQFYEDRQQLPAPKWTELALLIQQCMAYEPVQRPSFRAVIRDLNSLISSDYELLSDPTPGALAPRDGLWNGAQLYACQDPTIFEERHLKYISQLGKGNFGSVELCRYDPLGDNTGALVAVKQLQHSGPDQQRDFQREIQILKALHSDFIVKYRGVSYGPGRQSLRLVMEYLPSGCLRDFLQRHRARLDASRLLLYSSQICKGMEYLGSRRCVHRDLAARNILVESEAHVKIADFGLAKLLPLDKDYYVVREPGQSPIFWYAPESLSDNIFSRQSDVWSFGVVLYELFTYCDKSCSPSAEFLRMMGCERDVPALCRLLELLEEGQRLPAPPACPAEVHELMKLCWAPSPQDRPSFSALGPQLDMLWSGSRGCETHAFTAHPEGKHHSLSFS

TYK2, sequence (P29597 whole entry): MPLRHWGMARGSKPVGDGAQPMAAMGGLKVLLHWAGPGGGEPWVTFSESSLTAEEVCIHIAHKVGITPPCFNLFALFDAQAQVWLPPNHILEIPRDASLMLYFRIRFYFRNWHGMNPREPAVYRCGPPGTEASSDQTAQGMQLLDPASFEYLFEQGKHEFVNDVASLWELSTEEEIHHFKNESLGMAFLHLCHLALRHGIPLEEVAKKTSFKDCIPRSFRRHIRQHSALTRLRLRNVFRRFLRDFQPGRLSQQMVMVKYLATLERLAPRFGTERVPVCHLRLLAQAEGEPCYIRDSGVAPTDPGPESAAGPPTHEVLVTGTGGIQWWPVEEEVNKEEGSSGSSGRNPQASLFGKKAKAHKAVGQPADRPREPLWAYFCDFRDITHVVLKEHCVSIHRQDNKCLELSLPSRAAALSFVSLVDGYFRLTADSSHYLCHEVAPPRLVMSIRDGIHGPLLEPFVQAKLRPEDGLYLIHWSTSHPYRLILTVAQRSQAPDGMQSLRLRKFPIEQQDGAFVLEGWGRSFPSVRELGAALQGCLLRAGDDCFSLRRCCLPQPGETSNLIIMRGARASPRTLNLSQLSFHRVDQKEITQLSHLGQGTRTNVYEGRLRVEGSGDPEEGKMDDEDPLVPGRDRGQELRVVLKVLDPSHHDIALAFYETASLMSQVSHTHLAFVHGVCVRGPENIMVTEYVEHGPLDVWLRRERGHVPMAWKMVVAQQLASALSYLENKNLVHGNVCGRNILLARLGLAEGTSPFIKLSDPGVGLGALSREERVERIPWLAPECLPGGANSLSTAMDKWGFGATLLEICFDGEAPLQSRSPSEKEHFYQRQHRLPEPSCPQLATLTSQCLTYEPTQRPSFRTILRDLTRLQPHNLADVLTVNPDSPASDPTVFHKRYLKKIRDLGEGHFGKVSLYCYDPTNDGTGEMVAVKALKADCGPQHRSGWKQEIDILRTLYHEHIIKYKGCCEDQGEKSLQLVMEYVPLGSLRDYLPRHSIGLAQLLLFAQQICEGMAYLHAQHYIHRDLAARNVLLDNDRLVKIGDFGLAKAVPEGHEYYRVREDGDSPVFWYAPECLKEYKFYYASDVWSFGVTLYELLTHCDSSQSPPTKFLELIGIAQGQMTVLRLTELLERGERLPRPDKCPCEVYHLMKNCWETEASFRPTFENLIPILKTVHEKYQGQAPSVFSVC
JAK1, sequence (P23458 whole entry): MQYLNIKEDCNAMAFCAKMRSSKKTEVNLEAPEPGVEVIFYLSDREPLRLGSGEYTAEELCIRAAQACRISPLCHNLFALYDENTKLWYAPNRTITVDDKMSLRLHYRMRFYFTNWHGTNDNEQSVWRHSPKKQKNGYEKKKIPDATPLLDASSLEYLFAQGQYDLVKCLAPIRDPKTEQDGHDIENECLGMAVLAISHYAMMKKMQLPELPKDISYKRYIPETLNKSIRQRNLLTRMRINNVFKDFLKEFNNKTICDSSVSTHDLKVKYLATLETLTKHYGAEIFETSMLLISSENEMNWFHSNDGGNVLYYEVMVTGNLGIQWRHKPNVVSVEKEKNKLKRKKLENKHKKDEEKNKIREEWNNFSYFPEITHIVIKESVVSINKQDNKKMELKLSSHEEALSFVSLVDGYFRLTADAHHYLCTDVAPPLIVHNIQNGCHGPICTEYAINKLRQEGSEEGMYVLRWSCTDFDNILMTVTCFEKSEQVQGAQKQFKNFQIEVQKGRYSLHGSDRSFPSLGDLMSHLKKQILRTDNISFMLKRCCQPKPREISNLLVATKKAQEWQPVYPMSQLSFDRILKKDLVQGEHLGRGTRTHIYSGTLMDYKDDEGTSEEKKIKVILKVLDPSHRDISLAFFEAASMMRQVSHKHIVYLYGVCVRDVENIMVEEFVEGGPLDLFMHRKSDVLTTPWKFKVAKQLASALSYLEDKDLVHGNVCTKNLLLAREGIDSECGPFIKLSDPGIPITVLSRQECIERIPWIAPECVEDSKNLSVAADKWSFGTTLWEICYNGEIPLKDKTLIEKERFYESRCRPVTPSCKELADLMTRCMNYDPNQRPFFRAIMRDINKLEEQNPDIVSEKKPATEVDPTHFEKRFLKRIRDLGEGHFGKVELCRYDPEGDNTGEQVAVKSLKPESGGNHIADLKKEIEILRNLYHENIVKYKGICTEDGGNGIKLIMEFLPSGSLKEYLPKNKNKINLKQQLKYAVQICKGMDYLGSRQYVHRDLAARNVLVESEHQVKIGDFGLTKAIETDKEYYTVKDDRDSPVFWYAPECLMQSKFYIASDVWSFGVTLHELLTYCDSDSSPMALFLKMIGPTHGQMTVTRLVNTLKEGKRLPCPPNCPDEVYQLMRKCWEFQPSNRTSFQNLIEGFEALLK
JAK2, sequence (O60674 whole entry): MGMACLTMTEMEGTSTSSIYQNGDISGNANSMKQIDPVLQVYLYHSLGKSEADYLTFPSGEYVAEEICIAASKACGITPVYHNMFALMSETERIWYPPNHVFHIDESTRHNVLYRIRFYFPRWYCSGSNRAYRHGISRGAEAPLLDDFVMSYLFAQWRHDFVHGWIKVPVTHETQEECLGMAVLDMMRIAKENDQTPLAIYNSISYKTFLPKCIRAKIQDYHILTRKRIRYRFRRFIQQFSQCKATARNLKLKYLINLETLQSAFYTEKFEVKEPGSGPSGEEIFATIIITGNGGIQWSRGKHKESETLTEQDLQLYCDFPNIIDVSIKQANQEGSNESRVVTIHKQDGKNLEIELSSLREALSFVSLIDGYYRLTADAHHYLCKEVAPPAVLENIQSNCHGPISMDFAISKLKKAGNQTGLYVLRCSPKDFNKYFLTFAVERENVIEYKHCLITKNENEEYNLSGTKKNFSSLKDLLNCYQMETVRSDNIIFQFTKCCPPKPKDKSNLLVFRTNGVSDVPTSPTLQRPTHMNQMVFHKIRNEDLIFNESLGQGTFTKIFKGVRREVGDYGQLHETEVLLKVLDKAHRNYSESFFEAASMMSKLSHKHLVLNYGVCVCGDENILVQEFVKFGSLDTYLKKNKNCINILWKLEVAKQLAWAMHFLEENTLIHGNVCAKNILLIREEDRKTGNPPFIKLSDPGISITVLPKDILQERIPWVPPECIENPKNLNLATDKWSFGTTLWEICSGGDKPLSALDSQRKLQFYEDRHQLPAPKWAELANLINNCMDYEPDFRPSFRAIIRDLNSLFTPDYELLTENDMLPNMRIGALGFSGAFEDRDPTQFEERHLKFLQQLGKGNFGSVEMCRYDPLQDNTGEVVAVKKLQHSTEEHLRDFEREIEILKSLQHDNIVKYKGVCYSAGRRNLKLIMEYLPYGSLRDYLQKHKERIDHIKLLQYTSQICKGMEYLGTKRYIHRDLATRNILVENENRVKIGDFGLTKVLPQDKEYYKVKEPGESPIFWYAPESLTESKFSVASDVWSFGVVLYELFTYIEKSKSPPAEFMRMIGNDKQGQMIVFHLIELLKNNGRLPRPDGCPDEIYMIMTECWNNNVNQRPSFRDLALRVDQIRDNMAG

| Compound | IC50 (JAK1) [nM] | IC50 (JAK2) [nM] | IC50 (TYK2) [nM] | IC50 (JAK3) [nM] |
| --- | --- | --- | --- | --- |
| O=C1NCCCCOCc2cc(ccc2OCC2CCOC2)Nc2nccc(n2)-c2ccc1cc2[N+](=O)[O-] (centres unmarked) [Example 124, 1^2-nitro-4^4-((tetrahydrofuran-3-yl)methoxy)-6-oxa-3,11-diaza-2(4,2)-pyrimidina-1(1,4),4(1,3)-dibenzena-cyclododecaphan-12-one] | 1000 to 10000 | 1000 to 10000 | > 10000 | 101 to 1000 |
| O=C1NCCCCOCc2cc(ccc2N2CCCCC2)Nc2nccc(n2)-c2ccc1cc2F [Example 29, 1^2-fluoro-4^4-(piperidin-1-)-6-oxa-3,11-diaza-2(4,2)-pyrimidina-1(1,4),4(1,3)-dibenzenacyclododecaphan-12-one] | 101 to 1000 | 11 to 100 | 1000 to 10000 | 11 to 100 |
| O=C1NCCCOCc2cc(ccc2N2CCOCC2)Nc2nccc(n2)-c2ccc1cc2 [Example 13, 4^4-morpholin-6-oxa-3,11-diaza-2(4,2)-pyrimidina-1(1,4),4(1,3)-dibenzena-cycloundecaphan-11-one] | > 10000 | > 10000 | > 10000 | > 10000 |
| CC1CCNC(=O)c2ccc(c([N+](=O)[O-])c2)-c2ccnc(n2)Nc2ccc(OC3CC3)c(c2)COC1 (centres unmarked) [Example 103] | > 10000 | 1000 to 10000 | > 10000 | 101 to 1000 |
| CC1CCNC(=O)c2ccc(c([N+](=O)[O-])c2)-c2ccnc(n2)Nc2ccc(OCC3CCC3)c(c2)COC1 (centres unmarked) [Example 141, 4^4-(cyclobutylmethoxy)-8-methyl-1^2-nitro-6-oxa-3,11-diaza-2(4,2)-pyrimidina-1(1,4),4(1,3)-dibenzena-cyclododecaphan-12-one] | > 10000 | > 10000 | > 10000 | 1000 to 10000 |
| COc1cccc(F)c1COc1ccc2cc1COCC[C@H](C)CNC(=O)c1ccc(c(N)c1)-c1ccnc(n1)N2 [Example 192, (S)-1^2-amino-4^4-((2-fluoro-6-meth-oxybenzyl)oxy)-9-methyl-6-oxa-3,11-diaza-2(4,2)-pyrimidina-1(1,4),4(1,3)-dibenzenacyclo-dodecaphan-12-one] | 1000 to 10000 | 1000 to 10000 | > 10000 | 101 to 1000 |
| CC1CCNC(=O)c2ccc(c([N+](=O)[O-])c2)-c2ccnc(n2)Nc2ccc(OCC3CCCOC3)c(c2)COC1 (centres unmarked) [Example 139, 8-methyl-1^2-nitro-4^4-((tetrahydro-2H-pyran-3-yl)methoxy)-6-oxa-3,11-diaza-2(4,2)-pyrimidina-1(1,4),4(1,3)-dibenzenacyclododecaphan-12-one] | 1000 to 10000 | 1000 to 10000 | > 10000 | 101 to 1000 |
| Nc1cc2ccc1-c1ccnc(n1)Nc1ccc(OC3CCCOC3)c(c1)COc1ccc(cc1)NC2=O (centres unmarked) [Example 197, 1^2-amino-4^4-((tetrahydro-2H-pyran-3-yl)oxy)-6-oxa-3-8-diaza-2 (4,2)-pyrimidina-1,7(1,4), 4 (1,3)-tribenzenacyclononaphane-9-one] | 1000 to 10000 | 101 to 1000 | 1000 to 10000 | 11 to 100 |
| Nc1cc2ccc1-c1ccnc(n1)Nc1ccc(OCc3ccccc3F)c(c1)COCCCCNC2=O [Example 153, 1^2-amino-4^4-((2-fluorobenzyl)oxy)-6-oxa-3,11-diaza-2(4,2)-pyrimidi-na-1(1,4),4(1,3)-dibenzenacyclo-dodecaphan-12-one] | 1000 to 10000 | 101 to 1000 | > 10000 | < 10 |
| O=C1Nc2ccc(cc2)OCc2cc(ccc2OCC2CC2)Nc2nccc(n2)-c2ccc1cc2[N+](=O)[O-] [Example 206, 4^4-(cyclopropylmethoxy)-1-nitro-6-oxa-3,8-diaza-2(4,2)-pyrimidina-1,7(1,4),4(1,3)-tribenzenacyclo-nonaphane-9-one] | 1000 to 10000 | 101 to 1000 | > 10000 | < 10 |
| O=C1NCCCCOCc2cc(cc(N3CCOCC3)c2)Nc2ncc(Cl)c(n2)-c2ccc1cc2F [Example 25] | 1000 to 10000 | 1000 to 10000 | 1000 to 10000 | 101 to 1000 |
